{
  "source": "patent US11801246B2",
  "about": "“Methods of treating ischemic disease by administering an ATR kinase inhibitor” (East Tennessee State University Research Foundation, priority 2018, dated 2023)",
  "key": {"[1]": {"system": "dividing ATR+/+ and ATRflox/- HCT116 cells", "assay": "morphologic analysis (phase-contrast microscopy) of form of cell death", "type": "cell-based, human", "text": "(§1) FIG. 4 reports data supporting the finding that necrosis is the form of cell death induced by Ca^2+ overload in dividing cells. (A) ATR^+/+ and ATR^flox/− cells were pre-treated with apoptosis inhibitor Z-VAD-FMK and then with ionomycin for cytotoxicity assay. […] As a control, camptothecin (CPT), a DNA double-strand break and typical apoptosis inducer, caused characteristic cell shrinkage and apoptotic bodies. […] (E) A549 cells were transfected with control, ATR, or ATM siRNAs for 72 hrs, then treated with ionomycin for 4 hrs. Treated cells were either analyzed by Western blot or trypan blue staining for determination of cell death. (*, p≤0.01).\n(§2) Cultured dividing ATR^+/+ and ATR^flox/− HCT116 cells were pre-treated with apoptosis inhibitor Z-VAD-FMK and then with ionomycin, followed by trypan blue cytotoxicity assay (FIG. 4A). […] As a control, CPT, a DNA double-strand break and typical apoptosis inducer, caused characteristic cell shrinkage and apoptotic bodies. […] FIG. 4E: Dividing A549 cells were transfected with control, ATR, or ATM siRNAs for 72 hrs, then treated with ionomycin for 4 hrs. Treated cells were either analyzed by Western blot or subjected to trypan blue staining for determination of cell death. (*, p≤0.01)."}, "caspases": {"system": "caspases", "assay": "Western blot of activated (cleaved) caspases", "type": "cell-based, human", "text": "as §1, §2"}, "[2]": {"system": "Dividing human neural SH-SY5Y cells", "assay": "LDH cytotoxicity assay, Ca2+ overload in dividing cells", "type": "cell-based", "settings": "glutamate 100 uM, QA 1.0 mM or ionomycin 10 uM, VE-822 80 nM, 2 hrs", "procedure": "(§3) (A) Dividing human neural SH-SY5Y cells cultured in Dulbecco's modified Eagle's medium (DMEM) supplemented with 10% fetal bovine serum were treated with glutamate (100 uM), quinolinic acid (QA, 1.0 mM) or ionomycin (10 uM) in the presence and absence of ATR inhibitor VE-822 (ATRi, 80 nM) for 2 hours before cell death was measured using LDH cytotoxicity assay (LDH toxicity kit, Promega) following the vendor's procedures. (B)-(C) human ATR^+/+ and ATR^flox/− HCT116 cells and primary fibroblasts transfected with ATR siRNAs for 48 hrs were treated with ionomycin (10 uM) for the indicated periods before cell death was measured using standard trypan blue cytotoxicity assay. […] (E) Terminally differentiated non-dividing SH-SY5Y cells were treated with glutamate (100 uM), QA (1.0 mM) and ionomycin (1.0 uM)±VE-822 before cell death was measured using cytotoxicity assay. […] (G) Live cells (rounded morphology-white arrowheads) were counted in 5 fields per well. […]\n(§4) Dividing human neural SH-SY5Y cells were treated with glutamate (100 uM), quinolinic acid (QA) (1.0 mM) or ionomycin (10 uM)±ATR inhibitor VE-822 (ATRi) for 2 hrs before cell death was measured using LDH cytotoxicity assay. Human ATR^+/+ and ATR^flox/− HCT116 cells and primary fibroblasts±ATR siRNAs were treated with ionomycin (10 uM) for the indicated periods before cell death was measured using trypan blue cytotoxicity assay. […]"}, "myoblastic cells H9C2": {"system": "myoblastic cells H9C2", "assay": "hypoxia/reperfusion assay", "type": "cell-based, human", "settings": "dividing myoblastic H9C2 cells ± VE-822; hypoxia/reperfusion incubator"}, "[3]": {"system": "Terminally differentiated non-dividing SH-SY5Y cells", "assay": "cytotoxicity assay, Ca2+ overload in non-dividing cells", "type": "cell-based, human", "settings": "glutamate 100 uM, QA 1.0 mM, ionomycin 1.0 uM ± VE-822", "procedure": "as §3, §4"}, "Primary cortical neurons": {"system": "Primary cortical neurons", "assay": "NMDA excitotoxicity, live cell count", "type": "cell-based, mouse", "settings": "1 h pretreatment, then 10 uM NMDA for 8 h; p≤0.01"}, "C57BL/6 mice": {"system": "C57BL/6 mice", "assay": "middle cerebral artery occlusion (MCAO) stroke model", "type": "in vivo, mouse", "procedure": "Adult mice injected i.p. with vehicle (A) over 3 d after a 30 min unilateral MCAO had larger infarcts (identified by GFAP+ astrocyte borders and more leukocyte (CD45) infiltration) in the brain at 7 d, than with ATR inhibitor (ATRi) VE-822 (B). (C) Quantification of infarct size as % of the contralateral side. Data are mean+SEM. N=4, 6, *p<0.05. […] (E) The number of neurons identified by the area of NeuN staining in the infarct was increased by VE-822 treatment. (F) With vehicle the striatum was essentially devoid of neurons. (G) In VE-822 treated mice rescued neurons often appeared around blood vessels (identified by αSMA). (H) Grid walk analysis of VE-822-treated and mock-treated MCAO mice.\n(A) VE-822-treated mice had fewer CD45+ infiltrating leukocytes in the infarct at 7 d after MCAO, as shown by area measurements. N=4, 6, **p<0.01. (B) Only in ATR inhibitor-treated mice, a sub-set of CD45+ cells were double-labeled with TUNEL (white arrows), which identifies DNA breaks in dying cells. (C) These cells included CD68+ microglia/macrophages as shown by split cells in an adjacent section (yellow arrows). Note the perivascular CD68+ cell at the wall of a blood vessel (BV, pink arrow). (D) Cleaved caspase-3 was present in CD45+ and CD68+ cells ([…] confocal slice). (E) The number of TUNEL+ nuclei in the cortex and striatum was higher with the ATR inhibitor treatment. (F) Some of the CD45 cells expressed ATR. (G) After MCAO, ATR expression was induced in PDGFRβ+ pericytes in the infarct. Yellow arrows indicate the cells shown by confocal on the right. Bottom confocal: ATR is seen in a CD13+ pericyte around a microvessel. […] Green arrows=healthy pericytes.\nAdult male C57BL/6 mice (10-12 weeks old; JAX Stock 000664, Jackson Labs) were anesthetized with Avertin and received a unilateral middle cerebral artery occlusion (MCAO) for 30 min as described (Kang et al., Endogenous CNTF mediates stroke-induced adult CNS neurogenesis in mice, Neurobiology of Disease 49: 68-78 (2013)). Reduced cortical blood flow was confirmed by Laser-Doppler Flowmetry and body temperature maintained during and after the MCAO. Two hours afterwards, ATR inhibitor VE-822 was injected i.p., and again at 24 and 48 h. One day before and at 3 and 7 days after MCAO, the mice were tested for impaired forepaw use in a glass cylinder test while rearing and the number of placement errors during grid walking. At 7 d mice were processed for histology of the brain as described (Kang et al., 2012, and Kang, et al., 2013), using various antibodies for cellular markers. Infarct size was determined by the area of lost cells in GFAP- and NeuN (neurons)-stained sections. Inflammatory cells were detected and identified with various antibodies and their death documented using an apoptosis detection kit and by nuclear staining."}, "[4]": {"system": "Terminally differentiated non-dividing SH-SY5Y cells", "assay": "MTT cytotoxicity (cell viability) assay", "type": "cell-based, human", "settings": "Z-VAD-FMK combined with VE-822; glutamate", "procedure": "FIG. 3 depicts results of a cell viability assay (MTT) showing apoptosis is induced by Ca^2+ overload in terminally differentiated non-dividing SH-SY5Y cells but is reduced by ATR inhibition.\nStandard MTT cytotoxicity assay was carried out on terminally differentiated non-dividing SH-SY5Y cells treated with combinations of VE-822, Z-VAD-FMK, and glutamate. Cell differentiation: SH-SY5Y were grown to 60-70% confluency. Complete media was then replaced with 1% serum DMEM supplemented with freshly made all-trans retinoic acid dissolved in DMSO to a final in dish concentration of […]. This media was changed every two days following the same composition until day ten. At day ten the media was replaced with 1% serum DMEM with no further supplementation. A washout period of two days was allowed before any experiments were performed."}, "[5]": {"system": "dividing ATR+/+ and ATRflox/- HCT116 cells", "assay": "trypan blue cytotoxicity assay with apoptosis inhibitor pretreatment", "type": "cell-based, human", "settings": "pretreatment with Z-VAD-FMK, then ionomycin", "text": "as §1, §2"}, "dividing SH-SY5Y cells": {"system": "dividing SH-SY5Y cells", "assay": "DNA damage signaling and AIF activation", "type": "cell-based, human", "settings": "up to 8 hr, compared to controls; data not shown", "text": "A cell morphology-based assay was used to compare cells treated with ionomycin vs. the apoptosis-inducer camptothecin (CPT) (FIG. 4B, C). […] Importantly, cell death depended on NAD+ depletion and was calpain-independent; and ionomycin or glutamate induced little/no DNA damage signaling and AIF activation in dividing SH-SY5Y cells as compared to controls for up to 8 hr, although DNA damage did occur at 24 hr (data not shown)."}, "[6]": {"system": "HCT116 and A549 cells and primary fibroblasts", "assay": "flow cytometric analysis of necrotic and apoptotic cells", "type": "cell-based, human", "settings": "data not shown"}, "PARP": {"system": "PARP", "assay": "Western blot analysis of poly(ADP-ribose) (PAR) formation", "type": "cell-based, human", "settings": "dividing A549 cells; ionomycin 10 uM"}, "ATR binding to PARP1": {"system": "ATR binding to PARP1", "assay": "ATR co-immunoprecipitation and Western blot for PARP1 binding", "type": "cell-based, human", "settings": "dividing A549 cells; ionomycin-treated vs control", "procedure": "(B) Dividing ATR^+/+ and ATR^flox/− cells were treated with ionomycin for the indicated periods. (C) Dividing A549 cells were treated with ionomycin, followed by subcellular fractionation and co-immunoprecipitation with ATR antibody and Western blot analysis for PARP1 binding.\nSince PARP hyperactivation is known to be the major cause of necrosis by Ca^2+ overload, the effects of ATR on PARsylation in dividing cells was investigated. […] ATR+/+ and ATRflox/− cells were treated with ionomycin for the indicated periods. A549 cells were treated with ionomycin, followed by fractionation and ATR co-IP and Western blot analysis for PARP1 binding."}},
  "note": "“Also recorded” adds a separate entry of the source. Peptide text beside a SMILES is read from it. * marks the point of attachment. Cbz = O=C(OCc1ccccc1)*; CH2F = FC*",
  "data": [
    {"compound": "CC[C@@]1(O)C(=O)OCc2c1cc1n(c2=O)Cc2cc3ccccc3nc2-1", "note": "[CPT, camptothecin]", "values": [
      {"measurement": "form of cell death by cell morphology", "setting": "[1]", "value": "efficiently induced apoptosis"},
      {"measurement": "caspase activation (Western blot)", "setting": "caspases", "value": "obvious"}
    ]},
    {"compound": "CNCc1ccc(-c2cc(-c3nc(-c4ccc(S(=O)(=O)C(C)C)cc4)cnc3N)on2)cc1", "note": "[VE-822, 5-(4-(Isopropylsulfonyl)phenyl)-3-(3-(4-((methylamino)methyl)phenyl)isoxazol-5-yl)pyrazine-2-amine]", "values": [
      {"measurement": "cell death caused by cellular Ca2+ overload inducers", "setting": "[2]", "value": "dramatically increased cell death"},
      {"measurement": "cell death", "setting": "myoblastic cells H9C2", "value": "Increased death"},
      {"measurement": "cell death (rescue)", "setting": "[3]", "value": "rescued"},
      {"measurement": "live cells after NMDA excitotoxicity", "setting": "Primary cortical neurons", "value": "rescued from NMDA excitotoxicity"},
      {"measurement": "pericyte morphology in the infarct", "setting": "C57BL/6 mice; 7 d after MCAO, VTN-identified pericytes", "value": "morphology consistent with necrosis"},
      {"measurement": "number of TUNEL-positive cells in the injury site", "setting": "C57BL/6 mice; 7 d after MCAO, cortex and striatum, vs vehicle", "value": "increased"},
      {"measurement": "number of neurons in the injury site (NeuN area)", "setting": "C57BL/6 mice; 7 d after MCAO, vs vehicle", "value": "increased; also recorded: greater"},
      {"measurement": "CD45-positive leukocytes in the injury site", "setting": "C57BL/6 mice; 7 d after MCAO, vs vehicle, p<0.01", "value": "fewer"},
      {"measurement": "infarct size", "setting": "C57BL/6 mice; 7 days after 30 min MCAO, i.p. at 2, 24 and 48 h, vs vehicle, p<0.05", "value": "smaller infarcts"},
      {"measurement": "neurological function, grid-walking", "setting": "C57BL/6 mice; MCAO mice, i.p. at 2, 24 and 48 h, vs mock-treated", "value": "improved neurological function"},
      {"measurement": "neurological function, affected paw use in cylinder test", "setting": "C57BL/6 mice; MCAO mice, i.p. at 2, 24 and 48 h, vs vehicle", "value": "improved neurological function"},
      {"measurement": "neurological function, affected paw use in cylinder test", "setting": "C57BL/6 mice; MCAO mice, i.p. at 2, 24 and 48 h, vs vehicle, listed as ATRi", "value": "increased to the near normal forelimb use index level"}
    ]},
    {"compound": "COC(=O)C[C@H](NC(=O)[C@H](C)NC(=O)[C@@H](NC(=O)OCc1ccccc1)C(C)C)C(=O)CF", "note": "[Z-VAD-FMK] (Cbz-Val-Ala-Asp(OMe)-CH2F)", "values": [
      {"measurement": "rescue from death (MTT), combination of apoptosis inhibitor and ATR inhibition", "setting": "[4]", "value": "do not have additive effects"},
      {"measurement": "cell death (trypan blue)", "setting": "[5]", "value": "had no effect on cell death"}
    ]},
    {"compound": "N[C@@H](CCC(=O)O)C(=O)O", "note": "[glutamate]", "values": [
      {"measurement": "DNA damage signaling and AIF activation", "setting": "dividing SH-SY5Y cells", "value": "little/no"}
    ]},
    {"compound": "C[C@H](CCC(=O)O)C[C@H](C)C[C@H](C)C(=O)/C=C(\\O)[C@H](C)C[C@H](C)C/C=C/[C@@H](C)[C@@H](O)[C@@H](C)[C@@H](O)C[C@@H]1CC[C@@](C)([C@H]2CC[C@@](C)([C@@H](C)O)O2)O1", "note": "[ionomycin]", "values": [
      {"measurement": "form of cell death by cell morphology", "setting": "[1]", "value": "caused necrosis"},
      {"measurement": "caspase activation (Western blot)", "setting": "caspases", "value": "absence of caspase activation"},
      {"measurement": "form of cell death by flow cytometry", "setting": "[6]", "value": "necrotic cell death"},
      {"measurement": "DNA damage signaling and AIF activation", "setting": "dividing SH-SY5Y cells", "value": "little/no"},
      {"measurement": "PARP activity as formation of PAR polymers", "setting": "PARP", "value": "increased PARP activity"},
      {"measurement": "ATR interaction with PARP1 (co-IP)", "setting": "ATR binding to PARP1", "value": "interacts with PARP1"}
    ]}
  ]
}
